{"source": "paper PMC10165273", "about": "“Itch receptor MRGPRX4 interacts with the receptor activity–modifying proteins” (The Journal of Biological Chemistry, 2023)", "assay_type_in_all_cases": "cell-based", "key": {"MRGPRX4 + RAMP2": {"target": "T1, MRGPRX4 + RAMP2 (Homo sapiens, UniProt Q96LA9)", "T1 construct": "expressed in transfected cells; host or cells: HEK293T", "T1 sequence (Q96LA9 whole entry)": "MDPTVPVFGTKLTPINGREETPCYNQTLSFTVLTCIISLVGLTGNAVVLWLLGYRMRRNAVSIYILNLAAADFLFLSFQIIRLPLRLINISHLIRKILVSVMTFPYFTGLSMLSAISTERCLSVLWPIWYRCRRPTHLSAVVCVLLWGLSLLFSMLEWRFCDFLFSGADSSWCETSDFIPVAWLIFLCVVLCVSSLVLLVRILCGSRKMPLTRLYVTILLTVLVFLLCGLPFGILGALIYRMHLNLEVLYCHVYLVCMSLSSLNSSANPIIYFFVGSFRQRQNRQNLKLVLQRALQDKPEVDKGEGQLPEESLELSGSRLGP", "assay": "BRET2 β-arrestin2 recruitment, MRGPRX4 with RAMP2", "settings": "for BRET2 ratio, time course (Figure 5e): MRGPRX4 + RAMP2 100μM Ng, listed as Ng", "experimental": "(§1) The method for homogenous transfection of β-Arrestin and BRET^2 assay of β-Arrestin recruitment has been described previously ([51]). […] BRET^2 measurements were taken on the BioTek Synergy NEO2 microplate reader.\nTo measure the time-course of β-Arrestin2 recruitment to MRGPRX4 and CALCRL, the transfection and general procedure described above was followed, with the modification that Prolume Purple was added first, followed by addition of the appropriate agonists ([51]).\n(§2) The BRET ratio for each sample was determined by calculating the ratio of the light intensity emitted by the GFP10 (515 nm) (acceptor) over the light intensity emitted by the RLuc3 (395 nm) (donor). Net BRET^2 was determined by subtracting the basal BRET^2 (β-arrestin-RLuc3 only) signal from the BRET^2 signals. All BRET values were normalized to the MRGPRX4-only condition."}, "MRGPRX4": {"target": "T2, MRGPRX4 (Homo sapiens, UniProt Q96LA9)", "T2 construct": "expressed in transfected cells; host or cells: HEK293T", "T2 sequence (Q96LA9 whole entry)": "as above", "assay": "BRET2 β-arrestin1 recruitment to MRGPRX4", "settings": "for net BRET2 ratio, βArr1 recruitment: Fig 5a, 100µM ligand, replicate values, listed as Ng", "experimental": "as §1\nFor MRGPRX4 DNA titration assays, HEK293T cells were cotransfected with either β-Arrestin1 or β-Arrestin2 with increasing amounts of MRGPRX4 (0.5, 1, or 2 pg/cell).\nas §2"}, "MRGPRX4 + RAMP3": {"target": "T3, MRGPRX4 + RAMP3 (Homo sapiens, UniProt Q96LA9)", "T3 construct": "expressed in transfected cells; host or cells: HEK293T", "T3 sequence (Q96LA9 whole entry)": "as above", "assay": "BRET2 β-arrestin2 recruitment, MRGPRX4 with RAMP3", "experimental": "as §1, §2"}, "MRGPRX4 + RAMP1": {"target": "T4, MRGPRX4 + RAMP1 (Homo sapiens, UniProt Q96LA9)", "T4 construct": "expressed in transfected cells; host or cells: HEK293T", "T4 sequence (Q96LA9 whole entry)": "as above", "assay": "IP1 accumulation, MRGPRX4 coexpressed with RAMP1", "settings": "2 h; for activation at 20 µM: log [nateglinide] (M) -4.69897; for activation at 4 µM: log [nateglinide] (M) -5.39794; for activation at 0.8 µM: log [nateglinide] (M) -6.09691; for activation at […]: log [nateglinide] (M) -6.79588; for activation at 0.032 µM: log [nateglinide] (M) -7.49485", "experimental": "HEK293T cells were transfected with 1 pg/cell of MRGPRX4 DNA, and the amount of DNA was kept constant at 2 pg/cell with pcDNA3.1(+) empty vector, unless otherwise specified. Twenty four hours after transfection, IP1 assay was performed as previously described ([51]). When applicable, cells were treated with 1 μM YM254890 (YM) or different concentrations of U73122 for 1 h prior to addition of agonist or buffer. After incubation for 2 h, HTRF reagents and IP1 calibration standards were added and incubated for 2 h in the dark at room temperature. Time-resolved fluorescence signals were read on the BioTek Synergy NEO-TRF Hybrid multi-mode reader (BioTek Instruments). All data were carried out in three independent experiments with three technical replicate each.\nFor a homogenous transfection of MRGPRX4, a master mix of MRGPRX4 DNA was made prior to addition of the RAMP DNA. […]\nData reduction, standard calibration, and transformation of HTRF data were performed as previously described ([51]). Normalized IP1 values were calculated relative to the unstimulated mock-transfected cells (set to 0%) and fully stimulated MRGPRX4 (alone if applicable) (set to 100%)."}, "[1]": {"settings": "MRGPRX4+RAMP10.5pg 1:0.5, Supplementary Figure 5d, read-out: IP1 accumulation (normalized)"}, "[2]": {"settings": "MRGPRX4+RAMP1 0.75pg 1:0.75, Supplementary Figure 5d, read-out: IP1 accumulation (normalized)"}, "[3]": {"settings": "MRGPRX4+RAMP1 1pg 1:1, Supplementary Figure 5d, 5g, read-out: IP1 accumulation (normalized)"}}, "note": "“And” between values parts separate entries of the source, which are not always exact repeats. Equal entries are not always repeated. Where two headings read alike, the source gives them in different places."}
{"smiles": "CC(C)[C@H]1CC[C@H](C(=O)N[C@H](Cc2ccccc2)C(=O)O)CC1", "note": "[Nateglinide]", "values": [{"measurement": "BRET2 ratio, time course (Figure 5e)", "setting": "MRGPRX4 + RAMP2; 60 seconds", "value": "0.009668 and 0.00973 and 0.009697"}, {"measurement": "BRET2 ratio, time course (Figure 5e)", "setting": "MRGPRX4 + RAMP2; 120 seconds", "value": "0.01023 and 0.01 and 0.01054"}, {"measurement": "BRET2 ratio, time course (Figure 5e)", "setting": "MRGPRX4 + RAMP2; 180 seconds", "value": "0.01074 and 0.009771 and 0.01057"}, {"measurement": "BRET2 ratio, time course (Figure 5e)", "setting": "MRGPRX4 + RAMP2; 240 seconds", "value": "0.01008 and 0.0101 and 0.01015"}, {"measurement": "BRET2 ratio, time course (Figure 5e)", "setting": "MRGPRX4 + RAMP2; 300 seconds", "value": "0.009689 and 0.009979 and 0.01017"}, {"measurement": "BRET2 ratio, time course (Figure 5e)", "setting": "MRGPRX4 + RAMP2; 360 seconds", "value": "0.009793 and 0.009837 and 0.01091"}, {"measurement": "BRET2 ratio, time course (Figure 5e)", "setting": "MRGPRX4 + RAMP2; 420 seconds", "value": "0.009697 and 0.01031 and 0.01076"}, {"measurement": "BRET2 ratio, time course (Figure 5e)", "setting": "MRGPRX4 + RAMP2; 480 seconds", "value": "0.00993 and 0.009604 and 0.009499"}, {"measurement": "BRET2 ratio, time course (Figure 5e)", "setting": "MRGPRX4 + RAMP2; 540 seconds", "value": "0.00961 and 0.009808 and 0.01044"}, {"measurement": "BRET2 ratio, time course (Figure 5e)", "setting": "MRGPRX4 + RAMP2; 600 seconds", "value": "0.01026 and 0.01047 and 0.00952"}, {"measurement": "BRET2 ratio, time course (Figure 5e)", "setting": "MRGPRX4 + RAMP2; 660 seconds", "value": 0.009244}, {"measurement": "decrease in β-arrestin2 recruitment upon nateglinide treatment", "setting": "MRGPRX4 + RAMP2; RAMP2 coexpression vs MRGPRX4 alone (Fig. 5F)", "value": 73, "unit": "%"}, {"measurement": "β-arrestin1 recruitment to MRGPRX4", "setting": "MRGPRX4; 100 μM agonist (Fig. 5A)", "value": "very low β-arrestin1 recruitment"}, {"measurement": "net BRET2 ratio, βArr1 recruitment", "setting": "MRGPRX4; MRGPRX4 20ng, 0.5 pg DNA/cell", "value": "0.001598 and 0.001911 and 0.001766 and 0.001511 and 0.001907 and 0.001761 and 0.001482 and 0.001441 and 0.001223 and 0.001859 and 0.001157 and 0.001231 and 0.00136 and 0.0008839 and 0.000388 and 0.001053 and 0.001203 and 0.000951 and 0.0007681 and 0.0005323 and 0.0008933 and 0.0008719 and 0.001239 and 0.001046 and 0.001091"}, {"measurement": "net BRET2 ratio, βArr1 recruitment", "setting": "MRGPRX4; MRGPRX4 40ng, 1 pg DNA/cell", "value": "0.001875 and 0.002517 and 0.002385 and 0.001913 and 0.002075 and 0.001709 and 0.001872 and 0.002414 and 0.002488 and 0.001826 and 0.002129 and 0.001258 and 0.0007412 and 0.002042 and 0.001771 and 0.001548 and 0.001966 and 0.0009568 and 0.001828 and 0.001183 and 0.001043 and 0.001073 and 0.0007023 and 0.00193 and 0.002589 and 0.001421 and 0.00209"}, {"measurement": "net BRET2 ratio, βArr1 recruitment", "setting": "MRGPRX4; MRGPRX4 80ng, 2 pg DNA/cell", "value": "0.002996 and 0.002474 and 0.002377 and 0.001821 and 0.003223 and 0.002725 and 0.001839 and 0.003232 and 0.002812 and 0.002723 and 0.003057 and 0.001936 and 0.00205 and 0.002139 and 0.001864 and 0.00174 and 0.001944 and 0.002317 and 0.002724"}, {"measurement": "net BRET2 ratio, βArr1 recruitment", "setting": "MRGPRX4; βArr1 only, 0 pg MRGPRX4 DNA/cell", "value": "0.0003439 and -7.335e-5 and -0.0002706 and -9.392e-5 and -0.0001296 and 0.0002236 and -2.118e-6 and -0.0001045 and 0.0001067 and 0.000324 and -0.0001421 and -0.0001819 and 0.0002245 and -0.0001005 and -0.000124 and -9.463e-5 and 0.0003743 and -0.0002797 and -0.0002549 and 6.253e-5 and 0.0001923 and 0.0001254 and -0.000481 and 0.0003557 and 0.0001817 and -2.148e-5 and -0.0001602"}, {"measurement": "normalized β-arrestin2 recruitment BRET2 signal (Figure 5f)", "setting": "MRGPRX4 + RAMP3; MRGPRX4 + RAMP3, 100μM Ng, listed as Ng", "value": "0.6122 and 0.604 and 0.6466 and 0.7957"}, {"measurement": "attenuation of β-arrestin2 recruitment upon nateglinide treatment", "setting": "MRGPRX4 + RAMP3; RAMP3 coexpression vs MRGPRX4 alone (Fig. 5F)", "value": 34, "unit": "%"}, {"measurement": "activation at 100 µM", "setting": "MRGPRX4 + RAMP1; log [nateglinide] (M) -4, MRGPRX4+RAMP10.5pg 1:0.5, Supplementary Figure 5d, read-out: IP1 accumulation (normalized)", "value": 99.2, "unit": "%"}, {"measurement": "activation at 20 µM", "setting": "MRGPRX4 + RAMP1; [1]", "value": 78.1, "unit": "%"}, {"measurement": "activation at 20 µM", "setting": "MRGPRX4 + RAMP1; [2]", "value": 84.8, "unit": "%"}, {"measurement": "activation at 20 µM", "setting": "MRGPRX4 + RAMP1; [3]", "value": 72.1, "unit": "%"}, {"measurement": "activation at 4 µM", "setting": "MRGPRX4 + RAMP1; [1]", "value": 49.7, "unit": "%"}, {"measurement": "activation at 4 µM", "setting": "MRGPRX4 + RAMP1; [2]", "value": 44.1, "unit": "%"}, {"measurement": "activation at 4 µM", "setting": "MRGPRX4 + RAMP1; [3]", "value": 39.2, "unit": "%"}, {"measurement": "activation at 0.8 µM", "setting": "MRGPRX4 + RAMP1; [1]", "value": 18.6, "unit": "%"}, {"measurement": "activation at 0.8 µM", "setting": "MRGPRX4 + RAMP1; [2]", "value": 14.6, "unit": "%"}, {"measurement": "activation at 0.8 µM", "setting": "MRGPRX4 + RAMP1; [3]", "value": 12.9, "unit": "%"}, {"measurement": "activation at […]", "setting": "MRGPRX4 + RAMP1; [1]", "value": 8.57, "unit": "%"}, {"measurement": "activation at […]", "setting": "MRGPRX4 + RAMP1; [2]", "value": 11.2, "unit": "%"}, {"measurement": "activation at 0.032 µM", "setting": "MRGPRX4 + RAMP1; [1]", "value": 7.92, "unit": "%"}, {"measurement": "activation at 0.032 µM", "setting": "MRGPRX4 + RAMP1; [2]", "value": 8.7, "unit": "%"}, {"measurement": "activation at 0.032 µM", "setting": "MRGPRX4 + RAMP1; [3]", "value": 7.65, "unit": "%"}, {"measurement": "activation at 100 µM", "setting": "MRGPRX4 + RAMP1; ratio MRGPRX4:RAMP1 1:0.25, log [Nateglinide] (M) -4, Fig S3a, read-out: IP1 accumulation", "value": 102, "unit": "%"}]}
